Assay results from patent publication US8796302B2 (priority 2004, dated 2014).

Columns and labels:
[1] = test system: superoxide; test: Superoxide release (SOD-inhibitable cytochrome c reduction) after LPS; format: cell-based, rat
Protocol: The release of superoxide was determined by measuring the superoxide dismutase (SOD)-inhibitable reduction of cytochrome c. To measure the immediate release of superoxide from microglia-enriched or neuron-glia after stimulation, cultures grown in 96-well plates were switched to phenol red-free HBSS (50 μl/well). To each well was added 50 μl of HBSS containing vehicle or DM. The cultures were then incubated at about 37° C. for about 30 min followed by 50 μl of ferricytochrome c (100 μM) in HBSS, with and without 600 U/ml SOD, 50 μl of vehicle or LPS in HBSS. The absorbance at 550 nm was read with a SpectraMax Plus microplate spectrophotometer (Molecular Devices, Sunnyvale, Calif.).
This example tests whether or not post-treatment with DM is still neuroprotective in LPS-induced neurotoxicity. Neuron-glia co-cultures as prepared in Example 1 were first treated with LPS (20 ng/ml) for twelve hours, and then LPS was removed by removing the media from the cultures and washing twice with PBS. Different concentrations of DM (10^−5, 10^−10, and 10^−14 M) were then added to the cultures and incubation was continued for another 6 or 7 days. The DA uptake and the superoxide production were measured as in Example 1 and 5. Results are expressed as a percentage of the control cultures and are the mean±S.E.M of three to six experiments with triplicates in each experiment. ##, P<0.01 compared with control culture; *, P<0.05 compared with the LPS-treated culture.
Primary enriched-microglia cultures were prepared as in Example 1. […] The intracellular ROS concentrations and superoxide amounts were measured as in Example 5. The data are expressed as the percent of the control cultures and are the mean±SEM of three experiments performed in triplicate. *P<0.05, **P<0.01, compared to control.

[2] = test system: CD-1 mouse Kupffer cells; test: Superoxide and intracellular ROS in LPS-stimulated Kupffer cells; format: cell-based; conditions: LPS 10 ng/ml
Protocol: Kupffer cell samples were collected by anesthetizing the CD-1 mice with pentobarbital anesthesia [60 mg/kg intraperitoneally (i.p.)]. The abdomen of the animals was shaved and opened, the portal vein was cannulated and perfused with Ca^2+- and Mg^2+-free Hanks' balanced salt solution (HBSS) at 37° C. for 5 min at a flow rate of 13 ml/min. Subsequently, the liver was perfused with HBSS containing 0.05% collagenase IV (Sigma Chemical, St. Louis, Mo.) at 37° C. for 5 min. After the liver was digested, it was excised and cut into small pieces in collagenase buffer. The suspension was filtered through nylon gauze mesh, and the filtrate was centrifuged at 450×g for 10 min at 4° C. Cell pellets were resuspended in buffer, parenchymal cells were removed by centrifugation at 50×g for 3 min, and the nonparenchymal cell fraction was washed twice with buffer. Cells were centrifuged on a density cushion of 50% of Percoll (Pharmacia, Upsala, Sweden) at 1,000×g for 15 min, and the Kupffer cell fraction was collected and washed again with buffer. The viability of the cells was determined by tryptan blue exclusion at >90%. The cells were seeded onto 24-well culture plates and cultured in RPMI 1640 (GIBCO Laboratories Life Technologies, Grand Island, N.Y.) supplemented with 10% fetal bovine serum and antibiotics (100 U/ml penicillin G and 100 μg/ml streptomycin sulfate) at 37° C. with 5% CO2. Non-adherent cells were removed after 2 hours by replacing media, and cells were cultured for 24 hours before the experiments.
The production of superoxide and intracellular ROS by the Kupffer cells were measured as in Example 5.

For COc1ccc2c(c1)[C@@]13CCCC[C@H]1[C@@H](C2)N(C)CC3 [DM, d-3-methoxy-N-methylmorphinan], the “LPS-induced increase in the release of superoxide” value ([1]; DM 10^−5 M and 10^−14 M pretreatment) was “significantly decreased”, the “LPS-induced increase in superoxide production, post-treatment” value ([1]; DM 10^−5 and 10^−14 M post-treatment, 24 h after LPS) was “significantly inhibited LPS-induced increase in superoxide production” and the “LPS-induced increase in the release of superoxide” value ([1]; DM 10^−10 M pretreatment) was “no significant reduction”. The production of superoxide ([1]; DM 10^−10 M, pre- or post-treatment) was “neither pre-treatment nor post-treatment with DM at 10^−10 M significantly affected the production of superoxide”, the extracellular superoxide production ([2]; DM 5 μM) was “attenuated” and the “intracellular superoxide production (iROS)” value ([2]; DM 5 μM) was “attenuated”. For the same compound, the extracellular superoxide production ([2]; DM 10 μM) was “significantly blunted” and the “intracellular superoxide production (iROS)” value ([2]; DM 10 μM) was “significantly blunted”.
